Measured values reported in patent publication US8536204B2, “Amides and thioamides as pesticides” (Bayer CropScience AG, priority 2009, dated 2013).
Read-outs that look alike come from different tables or passages of the source.

Experiments:
[1] = Determination of the logP values (formic acid method) by HPLC; format: physicochemical
Experimental: 1) Description of Method for Determining the LogP Values (Formic Acid Method)
The logP values reported in the table were determined according to EEC-Directive 79/831 Annex V.A8 by HPLC (High Performance Liquid Chromatography) on a reversed-phase column (C 18). Temperature: 55° C.
Eluents for the determination in the acidic range (pH 3.4):
Eluent A: acetonitrile+1 ml of formic acid/litre. Eluent B: water+0.9 ml of formic acid/litre.
Gradient: from 10% eluent A/90% eluent B to 95% eluent A/5% eluent B in 4.25 min.
The calibration was effected with unbranched alkan-2-ones (with 3 to 16 carbon atoms), whose logP values are known (determination of the logP values on the basis of the retention times by linear interpolation between two successive alkanones). The lambda-max values were determined with reference to the UV spectra from 200 nm to 400 nm in the maxima of the chromatographic signals.

[2] = tested on: green peach aphid (Myzus persicae); assay: Myzus test (spray treatment); format: in vivo; settings: 144 h, read-out: efficacy in % (100% means that all aphids have been killed); for pest or weed control at 50 g/ha: application rate 50 g/ha
Experimental: Myzus Test (Spray Treatment)
Solvent: • 78 parts by weight of acetone • 1.5 parts by weight of dimethylformamide
Emulsifier: 0.5 part by weight of alkylaryl polyglycol ether
To produce an appropriate active ingredient formulation, 1 part by weight of active ingredient is mixed with the amounts of solvent and emulsifier specified and the concentrate is diluted to the desired concentration with emulsifier-containing water.
Chinese cabbage leaf slices (Brassica pekinensis) infested by all stages of the green peach aphid (Myzus persicae) are sprayed with an active ingredient formulation of the desired concentration.
After 6 days, the efficacy in % is determined. 100% means that all aphids have been killed; 0% means that no aphids have been killed.

[3] = reversed-phase HPLC column (C 18), pH 3.4, HPLC on reversed-phase column (C 18), acidic range (pH 3.4), 55° C., Table 1, read-out: logP (HCOOH)
[4] = application rate 500 g/ha, spray on Chinese cabbage leaf slices, after 6 days
[5] = reversed-phase HPLC column (C 18), pH 3.4, formic acid method, pH 3.4, given in the preparation examples, read-out: log P (HCOOH)
[6] = spray on Chinese cabbage leaf slices, after 6 days
[7] = HPLC on reversed-phase column (C 18), acidic range (pH 3.4), 55° C., Table 1, read-out: logP (HCOOH)

chromatographic logP [1, 3]	SMILES	pest or weed control at 500 g/ha [2, 4]	other results
1.12	Cc1nn(-c2cccnc2)cc1C(=O)NCC(F)F [Example 46]	100%	
0.84	COC(=O)C1(NC(=O)c2cnn(-c3cccnc3)c2)CC1 [Example 45]	100%	
0.91	Cc1nn(-c2cccnc2)cc1C(=O)NCC1COCCO1 (centres unmarked) [Example 34]	100%	
1.16	O=C(NCC1CC1)c1cnn(-c2cccnc2)c1 [Example 25]	100%	
1.37	COc1cc(OC)nc(CNC(=O)c2cnn(-c3cccnc3)c2)n1 [Example 51]		
0.87	Cc1nn(-c2cccnc2)cc1C(=O)NCCF [Example 38]	100%	
1.52	Cc1nn(-c2cccnc2)cc1C(=O)NCCC(F)(F)F [Example 32]	100%	
1.57	Cc1nn(-c2cccnc2)cc1C(=O)N(C)CC(F)(F)F [Example 37]	100%	
0.91	COC(=O)C(C)NC(=O)c1cnn(-c2cccnc2)c1 (centres unmarked) [Example 55]		pest or weed control at 50 g/ha [2, 6]: 90%
1.43	Cc1nn(-c2cccnc2)cc1C(=O)NCc1nc(C2CC2)no1 [Example 48]	100%	
1.9	Cc1nn(-c2cccnc2)cc1C(=O)NCC1Cc2ccccc2O1 (centres unmarked) [Example 56]		
1.17	Cc1nn(-c2cccnc2)cc1C(=O)N(C)C1CC1 [Example 29]	100%	
1.04	COC(CNC(=O)c1cn(-c2cccnc2)nc1C)OC [Example 35]	100%	
2.56	Cc1nn(-c2cccnc2)cc1C(=O)NCCOc1cc(Cl)ccc1Cl [Example 57]		
1.14	COC(=O)C(C)NC(=O)c1cn(-c2cccnc2)nc1C (centres unmarked) [Example 43]	100%	
1.32	Cc1nn(-c2cccnc2)cc1C(=O)NCC1CC1 [Example 36]	100%	
0.52	N#CCNC(=O)c1cnn(-c2cccnc2)c1 [Example 40]	100%	
1.09	CN(C(=O)c1cnn(-c2cccnc2)c1)C(C)(C)C#N [Example 42]	100%	
0.52	Cc1nn(-c2cccnc2)cc1C(=O)NCc1ccccn1 [Example 28]	100%	
1.2	Cc1cc(C)nc(CNC(=O)c2cn(-c3cccnc3)nc2C)n1 [Example 49]	100%	
1.95	Cc1nn(-c2cccnc2)cc1C(=O)NCC(F)(F)C(F)(F)F [Example 31]	100%	
0.91	CCNC(=O)c1cn(-c2cccnc2)nc1C [Example 39]	100%	
0.76	N#CC1(NC(=O)c2cnn(-c3cccnc3)c2)CC1 [Example 53]		pest or weed control at 50 g/ha [2, 6]: 90%
0.88	Cc1nn(-c2cccnc2)cc1C(=O)NCC1OCCO1 [Example 33]	100%	
1.69	O=C(NCC(F)(F)C(F)(F)F)c1cnn(-c2cccnc2)c1 [Example 52]		pest or weed control at 50 g/ha [2, 6]: 90%
1.63	Cc1nn(-c2cccnc2)cc1C(=O)NC1(C(F)(F)F)CC1 [Example 47]	100%	
1.4	CC(C)C(C#N)NC(=O)c1cnn(-c2cccnc2)c1 (centres unmarked) [Example 41]	100%	
1.35	Cc1nn(-c2cccnc2)cc1C(=O)NCC(C)(F)F [Example 27]	100%	
1.58	Cc1nn(-c2cccnc2)cc1C(=O)NC(C)C1CC1 (centres unmarked) [Example 26]	100%	logP (HCOOH) ([1]; HPLC on reversed-phase column (C 18), acidic range (pH 3.4), 55° C., Table 1): 1.45
0.79	Cc1nn(-c2cccnc2)cc1C(=O)NCC#N [Example 44]		

More lines, now with the values behind:

SMILES	chromatographic logP [1, 3]	pest or weed control at 500 g/ha [2, 4]	other results
O=C(NCc1nc(C2CC2)no1)c1cnn(-c2cccnc2)c1 [Example 20]	1.21	100%	
O=C(NC1CC1)c1cnn(-c2cccnc2)c1 [Example 18]	0.78	100%	
FC(F)(F)CNC(=S)c1cnn(-c2cccnc2)c1 [Example 12, 1-(Pyridin-3-yl)-N-(2,2,2-trifluoroethyl)-1H-pyrazole-4-carbothioamide]	1.97	80%	chromatographic logP [1, 5]: 1.97
O=C(NC1(C(F)(F)F)CC1)c1cnn(-c2cccnc2)c1 [Example 13]	1.4	100%	
O=C(NCC1COCCO1)c1cnn(-c2cccnc2)c1 (centres unmarked) [Example 23]	0.7	100%	
O=C(NCc1ccccn1)c1cnn(-c2cccnc2)c1 [Example 16]	0.31	100%	
Cc1nn(-c2cccnc2)cc1C(=O)NCC(F)(F)F [Example 2, 3-Methyl-1-(pyridin-3-yl)-N-(2,2,2-trifluoroethyl)-1H-pyrazole-4-carboxamide]	1.45		chromatographic logP [1, 5]: 1.45; pest or weed control at 500 g/ha ([2]; in Brassica rapa): 100%
O=C(NCCC(F)(F)F)c1cnn(-c2cccnc2)c1 [Example 21]	1.31	100%	
O=C(NCC1Cc2ccccc2O1)c1cnn(-c2cccnc2)c1 (centres unmarked) [Example 17]	1.68		
O=C(NCC1OCCO1)c1cnn(-c2cccnc2)c1 [Example 22]	0.66	100%	
CC(NC(=O)c1cnn(-c2cccnc2)c1)C1CC1 (centres unmarked) [Example 14]	1.38	100%	
O=C(NCc1ncccn1)c1cnn(-c2cccnc2)c1 [Example 5]	0.51	100%	
N#Cc1cnn(-c2cccnc2)c1 [1-(Pyridin-3-yl)-1H-pyrazole-4-carbonitrile]			chromatographic logP [1, 5]: 0.98
COC(CNC(=O)c1cnn(-c2cccnc2)c1)OC [Example 24]	0.83	100%	
Cc1nn(-c2cccnc2)cc1C(=O)N(C)C [Example 10]	0.7	100%	
CN(CC(F)(F)F)C(=O)c1cnn(-c2cccnc2)c1 [Example 8]	1.43	100%	
Cc1nn(-c2cccnc2)cc1C(=O)NCc1ncccn1 [Example 7]	0.78	100%	
Cc1nn(-c2cccnc2)cc1C(=O)O [3-Methyl-1-(pyridin-3-yl)-1H-pyrazole-4-carboxylic acid]			chromatographic logP [1, 5]: 0.77
O=C(O)c1cnn(-c2cccnc2)c1 [1-(Pyridin-3-yl)-1H-pyrazole-4-carboxylic acid]			chromatographic logP [1, 5]: 0.5
COC(=O)N(C)NC(=O)c1cn(-c2cccnc2)nc1C [Example 54]		100%	chromatographic logP [1, 7]: 0.79
CC(F)(F)CNC(=O)c1cnn(-c2cccnc2)c1 [Example 15]	1.11	100%	
COC(=O)NNC(=O)c1cn(-c2cccnc2)nc1C [Example 50]		100%	chromatographic logP [1, 7]: 0.52
O=C(NCC(F)F)c1cnn(-c2cccnc2)c1 [Example 6]	0.87	100%	
CN(C)C(=O)c1cnn(-c2cccnc2)c1 [Example 4]	0.6		pest or weed control at 50 g/ha [2, 6]: 90%
CCOC(=O)c1cn(-c2cccnc2)nc1C [Ethyl 3-methyl-1-(pyridin-3-yl)-1H-pyrazole-4-carboxylate]			chromatographic logP [1, 5]: 1.83
CN(C(=O)c1cnn(-c2cccnc2)c1)C1CC1 [Example 19]	1.09	100%	
CON(C)C(=O)c1cnn(-c2cccnc2)c1 [Example 11]	0.97		
CCNC(=O)c1cnn(-c2cccnc2)c1 [Example 1, N-Ethyl-1-(pyridin-3-yl)-1H-pyrazole-4-carboxamide]	0.64		chromatographic logP [1, 5]: 0.64; pest or weed control at 500 g/ha ([2]; in Brassica rapa): 100%
